{"source": "patent US9890126B2", "about": "(priority 2012, dated 2018)", "note": "Marks after values point to notes of the source that are not given here."}
{"system": "Burkholderia", "conditions": "cells printing symbol L"}
{"molecule": "Oc1ccc(-c2cncn2CCc2cccc(Cl)c2)cc1", "note": "[HGN-0108]", "% Growth Inhibition Endpoint (24 h)": "L^c"}
{"molecule": "Oc1ccc(-c2cncn2Cc2ccc(Cl)cc2)cc1", "note": "[HGN-0094]", "% Growth Inhibition Endpoint (24 h)": "L^c"}
{"molecule": "Oc1ccc(-c2cncn2Cc2cccc(Cl)c2)cc1", "note": "[HGN-0090]", "% Growth Inhibition Endpoint (24 h)": "L^c"}
{"molecule": "Oc1ccc(-c2cncn2Cc2ccccc2Cl)cc1", "note": "[HGN-0091]", "% Growth Inhibition Endpoint (24 h)": "L^c"}
{"molecule": "Oc1ccc(-c2cncn2CCc2ccccc2Cl)cc1", "note": "[HGN-0096]", "% Growth Inhibition Endpoint (24 h)": "L^c"}
{"system": "Burkholderia", "conditions": "concentration not given", "units": {"inhibition against Burkholderia": "%"}}
{"molecule": "Oc1ccc(-c2cncn2CCc2ccc(F)cc2)cc1", "note": "[HGN-0095]", "inhibition against Burkholderia": 88.3}
{"system": "Burkholderia", "conditions": "relative to DMSO control; 0.00 = growth with inhibitor equal to or greater than DMSO control"}
{"molecule": "O=C([O-])c1cnc(NCc2cc(Cl)ccc2Cl)nc1[O-].[Na+].[Na+]", "note": "[HGN-0128]", "% Growth Inhibition Endpoint (24 h)": "37.46 ± 0.21%"}
{"molecule": "NC(=O)c1c[nH]nc1NC(=O)Cc1cn2ccsc2n1", "note": "[HGN-0009]", "% Growth Inhibition Endpoint (24 h)": "0.00^b %"}
{"molecule": "O=C([O-])c1cnc(NCc2ccccc2Cl)nc1[O-].[Na+].[Na+]", "note": "[HGN-0122]", "% Growth Inhibition Endpoint (24 h)": "23.02 ± 8.79%"}
{"molecule": "Oc1ccc(-c2cncn2Cc2ccc(Cl)c(Cl)c2)cc1", "note": "[HGN-0092]", "% Growth Inhibition Endpoint (24 h)": "25.41 ± 2.79%"}
{"molecule": "Oc1ccc(-c2cncn2Cc2cccc(F)c2)cc1", "note": "[HGN-0109]", "% Growth Inhibition Endpoint (24 h)": "24.77 ± 10.79%"}
{"molecule": "Nc1ccn([C@@H]2O[C@H](CNC(=O)c3cn4ccsc4n3)[C@@H](O)[C@H]2O)c(=O)n1", "note": "[HGN-0006]", "% Growth Inhibition Endpoint (24 h)": "0.00^b %"}
{"molecule": "CCOC(=O)c1cnc(Nc2ccc(N3CCCCC3)cc2)[nH]c1=O", "note": "[HGN-0034, ethyl 6-oxo-2-((4-(piperidin-1-yl)phenyl)amino)-1,6-dihydropyrimidine-5-carboxylate]", "% Growth Inhibition Endpoint (24 h)": "86.20 ± 0.16%"}
{"molecule": "CCOC(=O)c1cnc(NCC2CCCO2)[nH]c1=O", "note": "(stereo not shown) [HGN-0017, ethyl 6-oxo-2-(((tetrahydrofuran-2-yl)methyl)amino)-1,6-dihydropyrimidine-5-carboxylate]", "% Growth Inhibition Growth Curve": "0.00^b %"}
{"molecule": "CCOC(=O)c1cnc(NCCc2cccc(F)c2)[nH]c1=O", "note": "[HGN-0115]", "% Growth Inhibition Endpoint (24 h)": "0.00^b %"}
{"molecule": "O=C([O-])c1cnc(NCCc2ccccc2Cl)nc1[O-].[Na+].[Na+]", "note": "[HGN-0120]", "% Growth Inhibition Endpoint (24 h)": "80.30 ± 0.40%"}
{"molecule": "CCOC(=O)c1cnc(NCc2ccccc2F)[nH]c1=O", "note": "[HGN-0133]", "% Growth Inhibition Endpoint (24 h)": "0.00^b %"}
{"molecule": "O=C([O-])c1cnc(NCC2CCCO2)nc1[O-].[Na+].[Na+]", "note": "(stereo not shown) [HGN-0050]", "% Growth Inhibition Endpoint (24 h)": "32.99 ± 9.22%"}
{"molecule": "CCOC(=O)c1cnc(Nc2ccc(-c3ccccc3)cc2)[nH]c1=O", "note": "[HGN-0033, ethyl 2-((1,1′-biphenyl)-4-ylamino)-6-oxo-1,6-dihydropyrimidine-5-carboxylate]", "% Growth Inhibition Endpoint (24 h)": "5.07 ± 2.01%"}
{"molecule": "Oc1ccc(-c2cncn2CCc2ccc(F)cc2)cc1", "note": "[HGN-0095]", "% Growth Inhibition Endpoint (24 h)": "88.27 ± 0.48%"}
{"molecule": "CCOC(=O)c1cnc(NCCc2ccc(Cl)c(Cl)c2)[nH]c1=O", "note": "[HGN-0131]", "% Growth Inhibition Endpoint (24 h)": "0.00^b %"}
{"molecule": "Oc1ccc(-c2cncn2CCc2ccccc2)cc1", "note": "[HGN-0022]", "% Growth Inhibition Endpoint (24 h)": "0.00^b %"}
{"molecule": "O=C([O-])c1cnc(NCc2ccc(Cl)cc2)nc1[O-].[Na+].[Na+]", "note": "[HGN-0126]", "% Growth Inhibition Endpoint (24 h)": "34.34 ± 3.24%"}
{"molecule": "CCOC(=O)c1cnc(NCc2ccccc2Cl)[nH]c1=O", "note": "[HGN-0121]", "% Growth Inhibition Endpoint (24 h)": "0.00^b %"}
{"molecule": "Nc1ccn([C@@H]2O[C@H](CNC(=O)c3cscn3)[C@@H](O)[C@H]2O)c(=O)n1", "note": "[HGN-0008]", "% Growth Inhibition Endpoint (24 h)": "0.00^b %"}
{"molecule": "Oc1ccc(-c2cncn2CCc2ccccc2F)cc1", "note": "[HGN-0107]", "% Growth Inhibition Endpoint (24 h)": "2.75 ± 2.62%"}
{"molecule": "O=C([O-])c1cnc(NCCc2c(Cl)cccc2Cl)nc1[O-].[Na+].[Na+]", "note": "[HGN-0136]", "% Growth Inhibition Endpoint (24 h)": "16.71 ± 5.04%"}
{"molecule": "CCOC(=O)c1cnc(Nc2ccc(-c3ccncc3)cc2)[nH]c1=O", "note": "[HGN-0015]", "% Growth Inhibition Growth Curve": "14.43 ± 2.38%"}
{"molecule": "Oc1ccc(-c2cncn2CCc2ccc(Cl)cc2Cl)cc1", "note": "[HGN-0099]", "% Growth Inhibition Endpoint (24 h)": "0.00^b %"}
{"molecule": "Oc1ccc(-c2cncn2Cc2ccc(F)cc2)cc1", "note": "[HGN-0093]", "% Growth Inhibition Endpoint (24 h)": "58.12 ± 2.17%"}
{"molecule": "CCOC(=O)c1cnc(NCCc2ccccc2Cl)[nH]c1=O", "note": "[HGN-0119]", "% Growth Inhibition Endpoint (24 h)": "0.00^b %"}
{"molecule": "O=C([O-])c1cnc(NCCc2ccc(F)cc2)nc1[O-].[Na+].[Na+]", "note": "[HGN-0112]", "% Growth Inhibition Endpoint (24 h)": "19.82 ± 16.53%"}
{"molecule": "CCOC(=O)c1cnc(NCc2ccco2)[nH]c1=O", "note": "[HGN-0047, Ethyl 2-((furan-2-ylmethyl)amino)-6-oxo-1,6-diydropyrimidine-5-carboxylate]", "% Growth Inhibition Endpoint (24 h)": "0.00^b %"}
{"molecule": "COc1cc(-c2cncn2CCc2c[nH]c3ccccc23)ccc1O", "note": "[HGN-0137]", "% Growth Inhibition Endpoint (24 h)": "0.00^b %"}
{"molecule": "CCOC(=O)c1cnc(NCCc2ccc(F)cc2)[nH]c1=O", "note": "[HGN-0111]", "% Growth Inhibition Endpoint (24 h)": "31.31 ± 39.32%"}
{"molecule": "CCOC(=O)c1cnc(NCc2ccc(Cl)c(Cl)c2)[nH]c1=O", "note": "[HGN-0129]", "% Growth Inhibition Endpoint (24 h)": "64.42 ± 2.77%"}
{"molecule": "CCOC(=O)c1cnc(NCc2cc(Cl)ccc2Cl)[nH]c1=O", "note": "[HGN-0127]", "% Growth Inhibition Endpoint (24 h)": "3.47 ± 2.20%"}
{"molecule": "Oc1ccc(-c2cncn2Cc2ccccc2F)cc1", "note": "[HGN-0106]", "% Growth Inhibition Endpoint (24 h)": "33.79 ± 16.09%"}
{"molecule": "Nc1ccn([C@@H]2O[C@H](CNC(=O)c3ccnc4nc[nH]c34)[C@@H](O)[C@H]2O)c(=O)n1", "note": "[HGN-0007]", "% Growth Inhibition Endpoint (24 h)": "0.00^b %"}
{"molecule": "O=C([O-])c1cnc(Nc2cccc(-c3ccccc3)c2)nc1[O-].[Na+].[Na+]", "note": "[HGN-0044, Sodium 2-([1,1′-biphenyl]-3-ylamino)-4-oxidopyrimidine-5-carboxylate]", "% Growth Inhibition Endpoint (24 h)": "1.48 ± 7.90%"}
{"molecule": "Oc1ccc(-c2cncn2CCc2cccc(F)c2)cc1", "note": "[HGN-0097]", "% Growth Inhibition Endpoint (24 h)": "4.27 ± 14.54%"}
{"molecule": "O=C([O-])c1cnc(Nc2ccc(Br)cc2)nc1[O-].[Na+].[Na+]", "note": "[HGN-0014]", "% Growth Inhibition Endpoint (24 h)": "15.52 ± 0.41%"}
{"molecule": "Nc1ccn([C@@H]2O[C@H](CNC(=O)Cc3cn4ccsc4n3)[C@@H](O)[C@H]2O)c(=O)n1", "note": "[HGN-0102]", "% Growth Inhibition Endpoint (24 h)": "0.00^b %"}
{"molecule": "CCOC(=O)c1cnc(NCc2ccc(F)cc2)[nH]c1=O", "note": "[HGN-0113]", "% Growth Inhibition Endpoint (24 h)": "0.00^b %"}
{"molecule": "NC(=O)c1c[nH]nc1NC(=O)c1cnc2sccn12", "note": "[HGN-0010]", "% Growth Inhibition Endpoint (24 h)": "7.22 ± 4.24%"}
{"molecule": "CCOC(=O)c1cnc(NCCc2c(Cl)cccc2Cl)[nH]c1=O", "note": "[HGN-0135]", "% Growth Inhibition Endpoint (24 h)": "0.00^b %"}
{"molecule": "O=C([O-])c1cnc(NCc2cccc(Cl)c2)nc1[O-].[Na+].[Na+]", "note": "[HGN-0124]", "% Growth Inhibition Endpoint (24 h)": "30.67 ± 2.67%"}
{"molecule": "Cn1cncc1C(O)c1ccccc1", "note": "(stereo not shown) [HGN-0031]", "% Growth Inhibition Growth Curve": "0.00^b %"}
{"molecule": "O=C([O-])c1cnc(NCCc2cccc(F)c2)nc1[O-].[Na+].[Na+]", "note": "[HGN-0116]", "% Growth Inhibition Endpoint (24 h)": "20.46 ± 3.47%"}
{"molecule": "O=C([O-])c1cnc(NCCc2ccc(Cl)c(Cl)c2)nc1[O-].[Na+].[Na+]", "note": "[HGN-0132]", "% Growth Inhibition Endpoint (24 h)": "72.24 ± 11.83%"}
{"molecule": "O=C([O-])c1cnc(NCc2ccc(Cl)c(Cl)c2)nc1[O-].[Na+].[Na+]", "note": "[HGN-0130]", "% Growth Inhibition Endpoint (24 h)": "45.59 ± 2.35%"}
{"molecule": "NC(=O)c1c[nH]nc1NC(=O)c1cncs1", "note": "[HGN-0004]", "% Growth Inhibition Endpoint (24 h)": "0.00^b %"}
{"molecule": "O=C([O-])c1cnc(Nc2ccc(N3CCCCC3)cc2)nc1[O-].[Na+].[Na+]", "note": "[HGN-0036]", "% Growth Inhibition Endpoint (24 h)": "22.38 ± 21.24%"}
{"molecule": "CCOC(=O)c1cnc(NCc2cccc(Cl)c2)[nH]c1=O", "note": "[HGN-0123]", "% Growth Inhibition Endpoint (24 h)": "0.00^b %"}
{"molecule": "CCOC(=O)c1cnc(NCCc2ccc(Cl)cc2Cl)[nH]c1=O", "note": "[HGN-0117]", "% Growth Inhibition Endpoint (24 h)": "0.00^b %"}
